“Also recorded” adds a separate entry of the source.
How the values were obtained:
[1] = system: facial dyschromia and/or hyperpigmentation; assay: Clinical study, investigator assessment of facial skin severity; format: in vivo, human; details: scale 0-9
Excerpt: Forty-three (43) participants (male and female; skin types I-IV; mean age 49.2) with mild to severe facial dyschromia and/or hyperpigmentation on the face were enrolled. Participants provided consent and agreed to limit their sun exposure for the duration of the study. Participants were required to comply with the skincare regimen and return for follow-up visits. This study population was deemed a large enough sample size for safety and efficacy. Only eligible participants were selected to participate. Participants that were enrolled and completed the 3-month study for this protocol were eligible to participate in the 3-month extension study.
(§1) Participants underwent up to 8 study visits: screening, baseline, and 3 follow-up visits in the main study, and a 12-week extension study extended to participants at the week 12 follow up visit, which included an additional 3 follow-up visits to be conducted over 12 weeks: week 16, 20, and a final visit at week 24. At the initial screening visit, participants were consented prior to any study procedures. Medical/aesthetic history, concomitant medications, and study eligibility were collected and assessed. The following procedures were performed at Baseline: Investigator assessments, photography, Optical Coherence Tomography (OCT) imaging of the skin (only at select sites). […] Participants were asked to return to the office for follow-up visits at 4, 8, and 12 weeks. […] Participants randomized to the topical study product continued use of the product throughout the duration of the study, along with the study provided cleanser and sunscreen to apply to their facial skin as previously instructed.
(§2) The products were supplied in a kit with a number and then dispensed according to the baseline grading of dyschromia.
As summarized in Table 15, investigator assessment of facial skin severity considered the overall appearance of dyschromia, skin tone (clarity and evenness), radiance, and skin texture, on the following scale: 0=none; 1-3=mild; 4-6=moderate; 7-9=severe.

[2] = system: facial dyschromia and/or hyperpigmentation; assay: Clinical study, investigator mMASI scoring; format: in vivo, human
Excerpt: as §1, §2
Investigator mMASI scoring was performed using a modified MASI scoring method depicted in FIG. 13.

facial skin [3] = assay: Clinical study, investigator assessment of tolerability (erythema, dryness, peeling); format: in vivo, human
Excerpt: as §1

facial skin [4] = assay: Clinical study, participant assessment of tolerability (burning/stinging, tingling, itching); format: in vivo, human
Excerpt: as §1

[5] = system: facial dyschromia and/or hyperpigmentation; assay: Clinical study, participant questionnaire; format: in vivo, human
Excerpt: as §1

facial skin [6] = details: human, in vivo, 12 weeks
Excerpt: Adverse events as assessed by investigators is an extremely important parameter for determining potential shortcomings of a product for treatment.

[7] = system: hTERT-immortalized dermal melanocytes; assay: Melanocyte assay, daily inspection of cell morphology; format: cell-based, human; details: both concentrations of Table 11; five-day dosing period
Experimental: Once the melanocytes were 100% confluent in 6-well plates, the melanocyte growth media was removed and the melanocytes were treated with media containing the above compounds; duplicate wells for each compound/concentration listed above. The duplicate vehicle control wells were fed melanocyte growth media only or melanocyte growth media with DMSO (10 uL per 10 mL melanocyte growth media).
The cells were fed the appropriate media for the next 5 days. Each day, the cells were inspected for morphology.

keratinocytes = assay: Gene expression study (RNA sequencing) in keratinocytes; format: cell-based, human; details: 24 hours of compound exposure
Experimental: (§3) Four cell types associated with pigmentation pathways—melanocytes, keratinocytes, fibroblasts and endothelial (HUVEC) cells—were analyzed for gene expression.
(§4) To simulate the UV stimulatory pigmentation pathway process, melanocytes were pre-treated with PGE2, a normal direct consequence of UV light exposure usually emanating from exposed keratinocytes. After the 48 hour attachment culture, these melanocytes were induced with 10 uM PGE2 in melanocyte media for 24 hrs. The four primary human adult dermal cell lines were cultured and plated in well plates in triplicate and then treated with 11 different compound treatments (plus DMSO control). After 48 hours of attachment culture, the remaining fibroblasts, HUVECs and keratinocytes were treated with the test compounds listed in Table 8.
(§5) After 24 hours of compound exposure, RNA lysate preparation was carried out and samples were shipped to MedGenome for RNA extraction, library construction and sequencing to 25M paired end 100 bp reads per sample. Library prep and sequencing was completed at MedGenome.

melanocytes = assay: In vitro melanocyte comparative analysis via absorbance readings (melanin production); format: cell-based; details: for Absorbance 405 nm / Absorbance 490 nm / Absorbance 492 nm: 4 days, control = 0.0 row; for Regulation of melanogenesis (decreased absorption denoting decreased melanin formation): melanocytes, summary of Table 10
Experimental: Melanocytes were cultured in 6-well plates containing growth media. Once confluent, 2 concentrations of each of the 10 compounds were added to the cells in triplicate wells for 4 days. There were a total of eleven 6-well plates, one for each compound treatment and one for the vehicle control. Absorbance readings were taken on the lysates prepared for each well of the 6-well plates, normalizing for cells counts. The model was initially tested for accuracy and validated using hexapeptide-12 in view of strong gene expression results with melanocyte cell line in the first study—confirmation of decreased stimulation was obtained. Additional validation was carried out using MSH addition to media to confirm increased stimulation of melanin production. The following compounds used in this study are seen in Table 9.

[8] = system: endothelial (HUVEC) cells; assay: Gene expression study (RNA sequencing) in endothelial (HUVEC) cells; format: cell-based, human; details: 24 hours of compound exposure
Experimental: as §3, §4, §5

[9] = change week 0 to week 12, N = 44 study product, N = 42 HQ4%
[10] = week 0 (baseline), N = 44 study product, N = 42 HQ4%
[11] = week 12, N = 44 study product, N = 42 HQ4%
[12] = higher concentration (Lactoferrin 1000, HEX-11 200, Phosphatidylserine 500, Silymarin 20, Sesamol 100, Tranexamic Acid 1000, HEX-12 4.9, ug/mL or ug/uL; Phytoene/Phytofluene 5.00%)
[13] = lower concentration (Lactoferrin 500, HEX-11 100, Phosphatidylserine 250, Silymarin 10, Sesamol 50, Tranexamic Acid 500, HEX-12 2.9, ug/mL or ug/uL; Phytoene/Phytofluene 2.50%)

Oc1ccc(O)cc1 [HQ 4%, Hydroquinone]
Dyschromia, investigator score, mean change ([1]; change week 0 to week 12): 0.9
Radiance, investigator score, mean change ([1]; change week 0 to week 12): 0.3
Skin tone, investigator score, mean change ([1]; change week 0 to week 12): 0.9
Texture, investigator score, mean change ([1]; change week 0 to week 12): 0
Dyschromia, investigator score, mean ([1]; week 0 (baseline)): 5.7
Radiance, investigator score, mean ([1]; week 0 (baseline)): 5
Skin tone, investigator score, mean ([1]; week 0 (baseline)): 5.5
Texture, investigator score, mean ([1]; week 0 (baseline)): 4.2
Dyschromia, investigator score, mean ([1]; week 12): 4.8
Radiance, investigator score, mean ([1]; week 12): 4.6
Skin tone, investigator score, mean ([1]; week 12): 4.7
Texture, investigator score, mean ([1]; week 12): 4.2
Left mMASI, mean ([2]; Week 12): 1.8
Left malar, mean ([2]; Week 12): 6
Right mMASI, mean ([2]; Week 12): 1.9
Right malar, mean ([2]; Week 12): 6.3
Total mMASI, mean ([2]; Week 12): 5.2
Left mMASI, mean change ([2]; change week 0 to week 12): 0.3
Left malar, mean change ([2]; change week 0 to week 12): 1.1
Right mMASI, mean change ([2]; change week 0 to week 12): 0.3
Right malar, mean change ([2]; change week 0 to week 12): 1.1
Total mMASI, mean change ([2]; change week 0 to week 12): 1
Combined right and left mMASI, mean change [2, 9]: 0.3
Combined right and left malar, mean change [2, 9]: 1.1
improvement in mMASI scoring at 12 weeks versus baseline ([2]; summary of Table 17): no such improvement
Left mMASI, mean ([2]; week 0 (baseline)): 2.2
Left malar, mean ([2]; week 0 (baseline)): 7.2
Right mMASI, mean ([2]; week 0 (baseline)): 2.2
Right malar, mean ([2]; week 0 (baseline)): 7.4
Total mMASI, mean ([2]; week 0 (baseline)): 6.1
Combined right and left mMASI, mean [2, 10]: 2.2
Combined right and left malar, mean [2, 10]: 7.3
Combined right and left mMASI, mean [2, 11]: 1.9
Combined right and left malar, mean [2, 11]: 6.2
Dryness, percent of participants (facial skin [3]; Week 4): 13.6%
Erythema, percent of participants (facial skin [3]; Week 4): 23%
Peeling, percent of participants (facial skin [3]; Week 4): 13.6%
Dryness, percent of participants (facial skin [3]; Week 8): 14%
Erythema, percent of participants (facial skin [3]; Week 8): 14%
Peeling, number of participants and grade (facial skin [3]; Week 8): 1 mild
Peeling, percent of participants (facial skin [3]; Week 8): 4.7%
Dryness, number of participants and grade (facial skin [3]; Week 12): 0
Erythema, number of participants and grade (facial skin [3]; Week 12): 4 minimal
Erythema, percent of participants (facial skin [3]; Week 12): 19%
Peeling, number of participants and grade (facial skin [3]; Week 12): 0
Burning/Stinging, number of participants and grade (facial skin [4]; Week 4): 6 minimal
Burning/Stinging, percent of participants (facial skin [4]; Week 4): 27%
Itching, percent of participants (facial skin [4]; Week 4): 36%
Tingling, percent of participants (facial skin [4]; Week 4): 18%
Burning/Stinging, percent of participants (facial skin [4]; Week 8): 9.5%
Itching, number of participants and grade (facial skin [4]; Week 8): 1 minimal
Itching, percent of participants (facial skin [4]; Week 8): 4.7%
Tingling, number of participants and grade (facial skin [4]; Week 8): 1 mild
Tingling, percent of participants (facial skin [4]; Week 8): 4.7%
Burning/Stinging, number of participants and grade (facial skin [4]; Week 12): 2 minimal
Burning/Stinging, percent of participants (facial skin [4]; Week 12): 9.5%
Itching, percent of participants (facial skin [4]; Week 12): 9.5%
Tingling, number of participants and grade (facial skin [4]; Week 12): 1 minimal
Tingling, percent of participants (facial skin [4]; Week 12): 4.7%
participant-reported irritation versus the study product population (facial skin [4]; summary of Table 19): irritation is increased across all parameters
Improved the evenness of my skin tone, % Agree or Somewhat Agree ([5]; Week 4): 76.19%
Improved the overall appearance of my skin, % Agree or Somewhat Agree ([5]; Week 4): 76.19%
Lessened the appearance of the dark spots and discoloration on my skin, % Agree or Somewhat Agree ([5]; Week 4): 80.95%
Made me feel more confident in the way my skin looks, % Agree or Somewhat Agree ([5]; Week 4): 61.90%
Made my skin look brighter and more radiant, % Agree or Somewhat Agree ([5]; Week 4): 66.67%
Made my skin look healthier, % Agree or Somewhat Agree ([5]; Week 4): 61.90%
Made my skin look more youthful, % Agree or Somewhat Agree ([5]; Week 4): 42.86%
Improved the overall appearance of my skin, % Agree or Somewhat Agree ([5]; Week 8): 85.71%
Lessened the appearance of the dark spots and discoloration on my skin, % Agree or Somewhat Agree ([5]; Week 8): 80.95%
Made me feel more confident in the way my skin looks, % Agree or Somewhat Agree ([5]; Week 8): 61.90%
Made my skin look brighter and more radiant, % Agree or Somewhat Agree ([5]; Week 8): 66.67%
Made my skin look healthier, % Agree or Somewhat Agree ([5]; Week 8): 71.43%
Made my skin look more youthful, % Agree or Somewhat Agree ([5]; Week 8): 71.43%
Improved the evenness of my skin tone, % Agree or Somewhat Agree ([5]; Week 12): 85.71%
Improved the overall appearance of my skin, % Agree or Somewhat Agree ([5]; Week 12): 85.71%
Lessened the appearance of the dark spots and discoloration on my skin, % Agree or Somewhat Agree ([5]; Week 12): 76.19%
Made me feel more confident in the way my skin looks, % Agree or Somewhat Agree ([5]; Week 12): 61.90%
Made my skin look brighter and more radiant, % Agree or Somewhat Agree ([5]; Week 12): 90.48%
Made my skin look healthier, % Agree or Somewhat Agree ([5]; Week 12): 85.71%
Made my skin look more youthful, % Agree or Somewhat Agree ([5]; Week 12): 71.43%
Improved the evenness of my skin tone, % Agree or Somewhat Agree ([5]; Week &): 85.71%
adverse events, percent of population (facial skin [6]): 23.8%
total number of adverse events reported (facial skin [6]): 5

C/C=C1/[C@H](O[C@@H]2O[C@H](CO)[C@@H](O)[C@H](O)[C@H]2O)OC=C(C(=O)OC)[C@H]1CC(=O)OCCc1ccc(O)c(O)c1 [Oleuropein]
melanocyte morphology / survival on daily inspection [7]: nearly all melanocytes were dead 72 hours post-initial dosing

Hexapeptide-11
melanogenesis gene activity in keratinocytes (keratinocytes): active ingredient in melanogenesis activity; also recorded: significant effects on melanogenesis activity
Absorbance 405 nm (melanocytes; [12]): 0.338
Absorbance 490 nm (melanocytes; [12]): 0.227
Absorbance 492 nm (melanocytes; [12]): 0.163
Absorbance 405 nm (melanocytes; [13]): 0.461
Absorbance 490 nm (melanocytes; [13]): 0.288
Absorbance 492 nm (melanocytes; [13]): 0.209
Regulation of melanogenesis (decreased absorption denoting decreased melanin formation) (melanocytes): Regulation of melanogenesis was observed

Phosphatidylserine
activity on EDN1 and other melanogenic genes in HUVECs [8]: potent activity; also recorded: significant effects on melanogenesis activity
Absorbance 405 nm (melanocytes; [12]): 0.61
Absorbance 490 nm (melanocytes; [12]): 0.38
Absorbance 492 nm (melanocytes; [12]): 0.288
Absorbance 405 nm (melanocytes; [13]): 0.686
Absorbance 490 nm (melanocytes; [13]): 0.438
Absorbance 492 nm (melanocytes; [13]): 0.338
Regulation of melanogenesis (decreased absorption denoting decreased melanin formation) (melanocytes): Regulation of melanogenesis was observed
